One data set has as its target T1, purified VDAC1 (Rattus norvegicus, UniProt Q9Z2L0).
T1 construct: rat liver mitochondria (5 mg/ml) in 10 mM Tris-HCl, pH 7.2, were incubated with 2% LDAO; from tissue; host or cells: rat liver mitochondria
Put plainly: Microscale thermophoresis (MST) binding to purified VDAC1. To be noted: MST, purified VDAC1 133 nM, 20 min incubation; means±SD (n=3); read-out: VDAC1 binding affinities.

A short description of data set [1]: Brain penetration after oral gavage, HPLC/MS of brain extracts. To be noted: for concentration at 24 h: C57BL/6, mouse, brain, oral, 50 mg/kg, mouse, read-out: Compounds in brain extract. The class given is in vivo, C57BL/6 mice. On the procedure: C57BL/6 mice ([…]) were used. The animals received treatments with either free compounds of Formulae 1 and 10, or encapsulated compounds, prepared according to the Examples 16 and 17. Doses as indicated in the Table 4 below were administered in phosphate-buffered saline (PBS) through an oral gavage. After 12 hours and 24 hours, randomly selected mice from each group were sacrificed, their brains collected and stored in −80° C. The concentrations of the compounds in the tissues were determined by HPLC/MS analysis.
Tissue samples were homogenized in phosphate-buffered saline solution, then diluted with acetonitrile to 50% v/v, centrifuged at 10,000 g for 10 minutes, and supernatants were analyzed. The compounds concentrations in the brain extracts were determined from calibration curves. The results were the averaged from 2 mice for each treatment group/time point.

The nature of data set [2]: IC50 for several activities / effective range (activity not specified). Conditions: quoted for comparison with brain levels.
The target of data set [3] is T2, VDAC1 (Homo sapiens, UniProt P21796). The data set can be described thus: Selenite-induced VDAC1 oligomerization by EGS cross-linking and immunoblot in HEK-293 cells (Method B). The class given is cell-based. Details: endogenous in cells; host or cells: HEK-293. Conditions: HEK-293 cells, compound 2 h then selenite 15 μM 4 h; means±SD (n=3); read-out: VDAC1 oligomerization IC50. How it is done:
(§1) Appropriate test cells (2.5-3 mg/ml) in PBS, were harvested after the treatment and incubated with the cross-linking reagent EGS at a ratio of 100-300 μM for sample of 2-3 mg protein/ml concentration (pH 8.3) for 15 minutes. Protein concentration was determined according to Lowry assay. Samples (60-80 μg protein) were subjected to SDS-PAGE by a standard technique and immunoblotting was performed using anti-VDAC1 antibodies. Gels were electro-transferred onto nitrocellulose membranes for immuno-staining. The membranes were incubated with a blocking solution containing 5% non-fat dry milk and 0.1% Tween-20 in Tris-buffered saline, followed by incubation with monoclonal anti-VDAC1, anti-Cytochrome c, anti-AIF or anti-actin antibodies. Membranes were then incubated with HRP-conjugated anti-mouse or anti-rabbit IgG (1:10,000), serving as secondary antibodies. Antibody labeling was detected by chemiluminescence. To detect VDAC1 oligomers, membranes were treated with 0.1 M glycine, pH 2.0, prior to immunoblotting and washed several times with 0.1% Tween-20 in Tris-buffered saline. Quantitative analysis of immuno-reactive VDAC1 dimer, trimer and multimer bands was performed using FUSION-FX (Vilber Lourmat, France).
The closed circle (●) indicates VBIT-4 (compound of Formula 1), the open circle (◯) indicates compound of Formula 10, and an open square (□) indicates VBIT-3 (compound of Formula 2).
d. IC50 values of the tested compounds were derived from the obtained data. The results shown correspond to means±SD (n=3).

For data set [4], the target named is T2, VDAC1. Put plainly: Selenite-induced VDAC1 oligomerization in HeLa cells, EGS cross-linking. The class given is cell-based. Details: endogenous in cells; host or cells: HeLa. To be noted: 22 h with selenite 8 μM and increasing concentrations. How it is done: as §1, with “To detect VDAC1 oligomers, membranes were treated with 0.1 M glycine, pH 2.0, prior to immunoblotting and washed several times with 0.1% Tween-20 in Tris-buffered saline.” left out
Cells (2.5 mg/ml) were washed with and resuspended in PBS, pH 8.3 and incubated with membrane-permeable cross-linker EGS (250 μM) at 30° C. for 15 min and then subjected to SDS-PAGE and immunoblotting using anti-VDAC1 antibodies. […] Cell death was analyzed using propidium iodide (PI) staining and flow cytometry.

Like-named read-outs stand apart in the source and are kept apart here.

T2 sequence (P21796 whole entry): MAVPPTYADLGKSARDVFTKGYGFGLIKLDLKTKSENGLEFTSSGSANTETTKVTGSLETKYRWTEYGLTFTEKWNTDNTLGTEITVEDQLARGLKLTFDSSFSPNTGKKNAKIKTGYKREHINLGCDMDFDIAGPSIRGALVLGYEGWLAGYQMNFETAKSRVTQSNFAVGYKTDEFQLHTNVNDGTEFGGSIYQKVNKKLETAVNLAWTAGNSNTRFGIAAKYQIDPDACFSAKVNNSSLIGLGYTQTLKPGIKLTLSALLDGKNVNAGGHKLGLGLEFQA
T1 sequence (Q9Z2L0 whole entry): as the sequence (P21796 whole entry) above, with T55N, M129V, A160S, I227V counted along it
Procedure for purified VDAC1: To obtain quantitative parameters of this interaction and derive a dissociation constant, e.g. a microscale thermophoresis (MST) interaction assay may be performed. In this manner, dissociation values are derived from the curves showing the affinity of the compounds of the invention to VDAC.
Briefly, rat liver mitochondria (5 mg/ml) in 10 mM Tris-HCl, pH 7.2, were incubated with 2% LDAO at 0° C. for 20 min, followed by centrifugation (30 min, 14,000 g) and the obtained supernatant was loaded onto a dry celite:hydroxyapatite (2:1) column. VDAC1 was eluted with a solution containing 2% LDAO, 10 mM Tris-HCl, pH 7.2, 50 mM NaCl, and 20 to 22 mM NaH2PO4, with VDAC1 detection by Coomassie blue staining. The VDAC1-containing fractions were dialyzed against 10 mM Tris-HCl, pH 7.2, and subjected to a second chromatography step on a carboxymethyl-cellulose (CMC) column from which VDAC1 was eluted with a solution containing 10 mM Tris-HCl, pH 7.2, 0.1% LDAO and 500 mM NaCl, detected as above. The VDAC1-containing fractions were collected and used for VDAC1 channel conductance and MST assays.
MST analysis was performed using a NanoTemper Monolith NT.115 apparatus. […]
Purified VDAC1 (133 nM), labeled using the NanoTemper fluorescent protein-labeling Kit BLUE (Nano Temper technologies, Munich, Germany), according to the manufactory instructions, was incubated with increasing concentrations of the following tested compounds: compound of Formula 10 (AKOS-022), compound of Formula 2 (VBIT-3), or racemic compound of Formula 1 (VBIT-4). After 20 min of incubation, the samples (3-5 μL) were loaded into MST-grade glass capillaries (Monolith NT Capillaries), and the thermophoresis process was measured using the Monolith-NT115 apparatus.
Fmax and Fmin represent the maximal and minimal fluorescence, respectively and F the fluorescence measured in the presence of the tested compound.
VDAC1 binding affinities of tested compounds were calculated from the MST measurements.

As for `O=C(CC(CO)N1CCN(c2ccc(OC(F)(F)F)cc2)CC1)Nc1ccc(Cl)cc1` (racemic) [Formula 1, N-(4-chlorophenyl)-4-hydroxy-3-(4-(4-(trifluoromethoxy)phenyl)-piperazin-1-yl)butanamide], the Kd at purified VDAC1 worked out at 17000 ± 5300 nM. Moreover, the concentration at 24 h in data set [1] (50 mg/kg in PLGA nanoparticles, oral gavage) stood at 190 ± 70 nM; in data set [1] (50 mg/kg oral gavage, free compound), 120 ± 20 nM. Further, the brain penetration result in data set [1] (given orally, in solution or encapsulated in PLGA nano-particles) is reported as “reached the brain”. The figures for the IC50 (in data set [2]; on VDAC1 [3]) were 1000 nM and 1900 nM, respectively.

Take `O=C(O)CNC(=O)C1(Nc2ccccc2)CCN(Cc2cccc3ccccc23)CC1` [Formula 3]: the “selenite-induced VDAC1 oligomerization” value on VDAC1 [4] was “Inhibited”.

The values are drawn from US10787423B2, “Piperazine and piperidine derivatives, their synthesis and use thereof in inhibiting VDAC oligomerization, apoptosis and mitochondria dysfunction” (THE NATIONAL INSTITUTE FOR BIOTECHNOLOGY IN THE NEGEV LTD., priority 2015, dated 2020).
